Here are results for 1 molecule from PMC10226046, “Prodrug Strategies for the Development of β-L-5-((E)-2-Bromovinyl)-1-((2S,4S)-2-(hydroxymethyl)-1,3-(dioxolane-4-yl))uracil (L-BHDU) against Varicella Zoster Virus (VZV)” (Journal of Medicinal Chemistry, 2023).

Series [1] relates to VZV-ORF57-Luc. Briefly: microbe, parasite or virus in culture. The series is classed as cell-based, Varicella zoster virus. Particulars: Human alphaherpesvirus 3, ARPE-19.
Series [2] has as its system VZV-ORF57-ΔTKTS. As to the kind of experiment: microbe, parasite or virus in culture. The note with it: Human alphaherpesvirus 3, ARPE-19. Type of series: cell-based, Varicella zoster virus.
Series [3] is described as follows: Oral pharmacokinetic absorption study in BALB/c mice (plasma, LC-MS/MS). The series is classed as in vivo. The note with it: after oral 22.5 mg/kg POM-L-BHDU-MP, LC/MS. The procedure: A pharmacokinetic absorption study was performed in BALB/c mice (Charles River). A single equimolar dose of 22.5 mg/kg POM-L-BHDU-MP or 11.4 mg/kg L-BHDU was dissolved in Cremophor–dimethyl sulfoxide (DMSO)–saline (1:1:8) and administered by oral gavage to two groups of mice with equal numbers of male and female mice (N = 15 each male and female).
Plasma was separated from red blood cells and immediately frozen at −80 °C.
This animal protocol #282 was approved by the IACUC at SUNY Upstate Medical University, which has been fully accredited by AAALAC since 7/31/1999. This method was previously used to evaluate L-BHDU effects on 5-fluorouracil metabolism.[16] Briefly, a single equimolar dose of 22.5 mg/kg POM-L-BHDU-MP or 11.4 mg/kg L-BHDU was dissolved in Cremophor–DMSO–saline (1:1:8) and administered by oral gavage to two groups of BALB/c mice (Charles River) with equal numbers of male and female mice (N = 15 each male and female). Six untreated mice were used for blank controls and were labeled time 0. At 20, 40, 60, and 120 min, three mice from the POM-L-BHDU-MP group and three mice from the L-BHDU group were anesthetized with inhaled isoflurane and then exsanguinated by cardiac puncture. Blood samples were collected into a tube containing heparin. Plasma was separated from red blood cells by centrifugation at 10,000 rpm for 5 min. Plasma was transferred to a new tube and immediately frozen at −80 °C.
Plasma samples were thawed, and exactly 0.95 mL was removed for analysis. The internal standard azidothymidine was added to mouse plasma samples at a final concentration of 20 ng/mL. Proteins were precipitated from the plasma by adding 2× volumes of methanol, then the samples were clarified by centrifugation. The supernatants were dried using an N-EVAP 116 analytical nitrogen evaporator and then reconstituted with 50% methanol in water. LC-MS/MS was used to analyze the concentrations of POM-L-BHDU-MP, L-BHDU, and L-BHDU-MP. Calibration curves were made using BALB/c mouse plasma (Innovative Research, Inc. Novi MI) prior to analyzing the experimental samples.
The primary stock solutions for the calibration were prepared at 0.5 mg/mL for L-BHDU, 1 mg/mL for POM-L-BHDU-MP, and 1 mg/mL for L-BHDU-MP. The primary stock solutions were diluted to working solutions that were in turn used to spike the biological matrix of interest. L-BHDU calibration points were 100.0, 400.0, 800.0, 1000.0, 4000.0, 6000.0, 8000.0, 10,000.0, and 12,000.0 ng/mL. L-BHDU-MP calibration points were 100.0, 200.0, 400.0, 800.0, 1000.0, 2000.0, 4000.0, 6000.0, and 8000.0 ng/mL. The ISTD working solution of AZT was prepared at 20 ng/mL. The standard stock solutions were stored in −80 °C freezer until used. […] The samples were analyzed in a negative ESI mode. […]

The nature of series [4]: Neutral red dye uptake cytotoxicity assay in ARPE-19 cells. Particulars: human.

In the case of `CC(C)(C)C(=O)OCOP(=O)(OCOC(=O)C(C)(C)C)OC[C@H]1OC[C@@H](n2cc(/C=C/Br)c(=O)[nH]c2=O)O1` [POM-L-BHDU-MP (41), Bis(POM) Prodrug of L-BHDU-MP], the EC50 in series [1] is 51 nM; in series [2], > 2000 nM. Besides, the “L-BHDU-MP detected in plasma” value in series [3] is recorded as “below the limit of quantitation”. Further, the CC50 at 72 h in series [4] is > 100000 nM.
